Here are results for 29 molecules from patent US12459932B2, “KIF18A inhibitors” (AMGEN INC., priority 2018, dated 2025).

This assay deals with T1, Recombinant human KIF18A (1-467 His-tagged) (Homo sapiens, UniProt Q8NI77).
T1 construct: Recombinant human KIF18A (1-467 His-tagged) protein; His
The assay can be described thus: KIF18A Enzyme Assay: microtubule-stimulated ATPase activity (ADP-Glo). It counts as biochemical. Conditions: 30 nM KIF18A, 30 μg/mL pig microtubules, ATP 75 μM (Km), ADP-Glo luminescence. The method, then:
KIF18A Enzyme Assay: Microtubule-stimulated ATPase activity assay is used to measure KIF18A enzyme activity after treatment with compound. Compounds were 2-fold serially diluted in DMSO (Sigma Inc) over 22-point concentration range. […] The assay measures ADP formed from the ATPase reaction. […] Read luminescence using EnVision microplate reader with ultra-luminescence module (Perkin Elmer Inc). Concentration-response curve-fitting and IC50 determination was performed using Genedata Screener Software (Standard 15.0.1, Genedata Inc) with a four-parameter logistic regression fit model.

T1 sequence (Q8NI77 1-467): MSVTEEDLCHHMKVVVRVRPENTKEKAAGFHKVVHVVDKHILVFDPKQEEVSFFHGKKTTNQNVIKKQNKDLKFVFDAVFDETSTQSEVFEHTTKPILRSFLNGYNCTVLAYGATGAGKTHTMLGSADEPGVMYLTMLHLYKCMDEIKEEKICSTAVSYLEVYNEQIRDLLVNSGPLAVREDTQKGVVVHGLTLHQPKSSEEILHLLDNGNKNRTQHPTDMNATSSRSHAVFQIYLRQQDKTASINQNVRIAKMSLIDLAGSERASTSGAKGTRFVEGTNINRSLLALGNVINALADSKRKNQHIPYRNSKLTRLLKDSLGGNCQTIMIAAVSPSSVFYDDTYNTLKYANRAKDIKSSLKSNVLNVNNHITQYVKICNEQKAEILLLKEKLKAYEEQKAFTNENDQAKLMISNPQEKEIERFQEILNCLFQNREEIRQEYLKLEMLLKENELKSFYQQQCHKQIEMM
T1 sequence (P02550 whole entry partner): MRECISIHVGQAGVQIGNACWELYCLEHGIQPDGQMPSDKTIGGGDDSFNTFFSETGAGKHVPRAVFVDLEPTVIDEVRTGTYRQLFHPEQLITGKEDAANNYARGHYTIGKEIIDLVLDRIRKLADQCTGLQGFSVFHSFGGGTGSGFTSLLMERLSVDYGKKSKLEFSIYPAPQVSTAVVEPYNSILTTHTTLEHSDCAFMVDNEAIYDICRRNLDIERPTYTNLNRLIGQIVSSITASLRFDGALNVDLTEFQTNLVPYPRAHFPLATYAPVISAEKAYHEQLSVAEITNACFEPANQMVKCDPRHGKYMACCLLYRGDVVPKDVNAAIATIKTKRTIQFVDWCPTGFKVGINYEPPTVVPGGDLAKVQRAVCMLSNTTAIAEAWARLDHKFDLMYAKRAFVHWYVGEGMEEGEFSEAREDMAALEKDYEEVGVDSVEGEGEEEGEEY
T1 sequence (P02554 whole entry partner): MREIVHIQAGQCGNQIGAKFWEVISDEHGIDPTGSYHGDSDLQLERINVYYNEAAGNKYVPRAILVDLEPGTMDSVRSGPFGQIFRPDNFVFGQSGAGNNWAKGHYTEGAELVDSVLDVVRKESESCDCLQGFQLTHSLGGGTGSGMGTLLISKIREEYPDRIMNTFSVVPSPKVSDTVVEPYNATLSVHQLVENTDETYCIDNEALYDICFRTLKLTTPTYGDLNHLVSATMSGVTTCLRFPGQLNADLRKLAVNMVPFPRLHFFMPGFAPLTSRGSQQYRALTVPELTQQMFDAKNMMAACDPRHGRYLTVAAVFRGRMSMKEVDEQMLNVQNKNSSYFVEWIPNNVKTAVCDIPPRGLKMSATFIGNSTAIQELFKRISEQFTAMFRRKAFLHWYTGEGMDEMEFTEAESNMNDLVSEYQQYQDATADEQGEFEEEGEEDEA

The term IC50 denotes the concentration needed to halve the response being measured. Take `C[C@@H]1CN(c2cccc(NC(=O)c3ccc(NS(=O)(=O)C(F)F)cc3N3CCC4(CC3)CC4)n2)CCO1` [Example 7-7, (R)-4-((Difluoromethyl)sulfonamido)-N-(6-(2-methylmorpholino)pyridin-2-yl)-2-(6-azaspiro[2.5]octan-6-yl)benzamide]: the IC50 amounted to 49 nM.
Regarding `C[C@@H]1CN(c2cccc(NC(=O)c3ccc(NS(=O)(=O)C4CCC4)cc3N3CCC4(CC3)CC4)n2)CCO1` [Example 7-9, (R)-4-(Cyclobutanesulfonamido)-N-(6-(2-methylmorpholino)pyridin-2-yl)-2-(6-azaspiro[2.5]octan-6-yl)benzamide], the 50% inhibitory concentration (IC50) was found to be 62 nM.
Turning to `Cc1cc(NC(=O)c2ccc(NS(=O)(=O)CCO)cc2N2CCC3(CC2)CC3)nc(C2CC(F)(F)C2)c1` [Example 7-1, N-(6-(3,3-Difluorocyclobutyl)-4-methylpyridin-2-yl)-4-((2-hydroxyethyl)sulfonamido)-2-(6-azaspiro[2.5]octan-6-yl)benzamide], the IC50 turned out to be 45 nM.
Then `CS(=O)(=O)c1ccc(C(=O)Nc2cccc(C3CC3)n2)c(N2CCC3(CC2)CC3)c1` [Example 4-4, N-(6-Cyclopropylpyridin-2-yl)-4-(methylsulfonyl)-2-(6-azaspiro[2.5]octan-6-yl)benzamide], with 180 nM.
Next, `Cc1cc(NC(=O)c2ccc(NS(C)(=O)=O)cc2N2CCC3(CC2)CC3)nc(N2CC(F)(F)C2)c1` [Example 7-27, N-(6-(3,3-Difluoroazetidin-1-yl)-4-methylpyridin-2-yl)-4-(methylsulfonamido)-2-(6-azaspiro[2.5]octan-6-yl)benzamide]: 14 nM; `Cc1cc(NC(=O)c2ccc(NS(=O)(=O)CF)cc2N2CCC3(CC2)CC3)nc(N2CCO[C@H](C)C2)c1` [Example 7-36, (R)-4-((Fluoromethyl)sulfonamido)-N-(4-methyl-6-(2-methylmorpholino)pyridin-2-yl)-2-(6-azaspiro[2.5]octan-6-yl)benzamide]: 62 nM.
Then `C[C@@H]1CN(c2cc(C(F)(F)F)cc(NC(=O)c3ccc(NS(=O)(=O)CCO)cc3N3CCC4(CC3)CC4)n2)CCO1` [Example 20, (R)-4-((2-Hydroxyethyl)sulfonamido)-N-(6-(2-methylmorpholino)-4-(trifluoromethyl)pyridin-2-yl)-2-(6-azaspiro[2.5]octan-6-yl)benzamide], with 93 nM.
Take `C[C@@H]1CN(c2cccc(NC(=O)c3ccc(S(=O)(=O)C4(C)COC4)cc3N3CCC4(CC3)CC4)n2)CCO1` [Example 2-3, (R)-N-(6-(2-Methylmorpholino)pyridin-2-yl)-4-((3-methyloxetan-3-yl)sulfonyl)-2-(6-azaspiro[2.5]octan-6-yl)benzamide]: the IC50 was 141 nM.
Then `Cc1cc(NC(=O)c2ccc(NS(=O)(=O)C3CC3)cc2N2CCC3(CC2)CC3)nc(N2CCC(F)(F)CC2)c1` [Example 7-25, 4-(Cyclopropanesulfonamido)-N-(6-(4,4-difluoropiperidin-1-yl)-4-methylpyridin-2-yl)-2-(6-azaspiro[2.5]octan-6-yl)benzamide], with 39 nM; and `Cc1cc(NC(=O)c2ccc(S(=N)(=O)C3CC3)cc2N2CCC3(CC2)CC3)nc(N2CCC(F)(F)CC2)c1` (stereo in doubt) [Example 30-2, 2-(6-Azaspiro[2.5]octan-6-yl)-4-(R-cyclopropylsulfonimidoyl)-N-(6-(4,4-difluoro-1-piperidinyl)-4-methyl-2-pyridinyl)benzamide], with 42 nM; and `Cc1cc(NC(=O)c2ccc(NS(=O)(=O)C3(CO)CC3)cc2N2CCC3(CC2)CC3)nc(N2CC(F)(F)C2)c1` [Example 10-2, N-(6-(3,3-Difluoroazetidin-1-yl)-4-methylpyridin-2-yl)-4-((1-(hydroxymethyl)cyclopropane)-1-sulfonamido)-2-(6-azaspiro[2.5]octan-6-yl)benzamide], with 76 nM.
Then `CC1(S(=O)(=O)Nc2ccc(C(=O)Nc3cccc(N4CCO[C@@H](CO)C4)n3)c(N3CCC4(CC3)CC4)c2)CC1` [Example 3-11, (R)-N-(6-(2-(Hydroxymethyl)morpholino)pyridin-2-yl)-4-((1-methylcyclopropane)-1-sulfonamido)-2-(6-azaspiro[2.5]octan-6-yl)benzamide], with 73 nM.
Next, `C[C@H](CO)S(=O)(=O)Nc1ccc(C(=O)Nc2cccc(OCCC(F)(F)F)n2)c(N2CCC3(CC2)CC3)c1` (single isomer, unassigned) [Example 8-1]: 16 nM; `CC1(S(=O)(=O)Nc2ccc(C(=O)Nc3cccc(N4CCC[C@](C)(O)C4)n3)c(N3CCC4(CC3)CC4)c2)CC1` [Example 3-9, (S)-N-(6-(3-Hydroxy-3-methylpiperidin-1-yl)pyridin-2-yl)-4-((1-methylcyclopropane)-1-sulfonamido)-2-(6-azaspiro[2.5]octan-6-yl)benzamide]: 175 nM; `Cc1cc(NC(=O)c2ccc(NS(=O)(=O)CC3CC3)cc2N2CCC3(CC2)CC3)nc(N2CC(F)(F)C2)c1` [Example 7-31, 4-((Cyclopropylmethyl)sulfonamido)-N-(6-(3,3-difluoroazetidin-1-yl)-4-methylpyridin-2-yl)-2-(6-azaspiro[2.5]octan-6-yl)benzamide]: 59 nM.
With `C[C@@H]1CN(c2cccc(NC(=O)c3ccc(S(C)(=N)=O)cc3N3CCC4(CC3)CC4)n2)CCO1` (stereo in doubt) [Example 13-4, 2-(6-Azaspiro[2.5]octan-6-yl)-N-(6-((2R)-2-methyl-4-morpholinyl)-2-pyridinyl)-4-(R-methylsulfonimidoyl)benzamide], the IC50 came out at 154 nM.
Then `C[C@@H]1CN(c2cccc(NC(=O)c3ccc(S(=O)(=O)C(C)(C)C)cc3N3CCC4(CC3)CC4)n2)CCO1` [Example 2-2, (R)-4-(tert-Butylsulfonyl)-N-(6-(2-methylmorpholino)pyridin-2-yl)-2-(6-azaspiro[2.5]octan-6-yl)benzamide], with 78 nM; and `CC(CO)NS(=O)(=O)c1ccc(C(=O)Nc2cccc(N3CCO[C@H](C)C3)n2)c(N2CCC3(CC2)CC3)c1` (stereo partly drawn) [Example 1-5, 4-(N-(1-Hydroxypropan-2-yl)sulfamoyl)-N-(6-((R)-2-methylmorpholino)pyridin-2-yl)-2-(6-azaspiro[2.5]octan-6-yl)benzamide], with 47 nM.
`Cc1cc(NC(=O)c2ccc(S(=N)(=O)C3CC3)cc2N2CCC3(CC2)CC3)nc(N2CC(F)(F)C2)c1` (single isomer, unassigned) [Example 28-1, 2-(6-Azaspiro[2.5]octan-6-yl)-4-(S-cyclopropylsulfonimidoyl)-N-(6-(3,3-difluoro-1-azetidinyl)-4-methyl-2-pyridinyl)benzamide]: the IC50 stood at 71 nM.
With `C[C@@H]1CN(c2cccc(NC(=O)c3ccc(NS(=O)(=O)C(C)(C)C)cc3N3CCC4(CC3)CC4)n2)CCO1` [Example 7-16, (R)-4-((1,1-Dimethylethyl)sulfonamido)-N-(6-(2-methylmorpholino)pyridin-2-yl)-2-(6-azaspiro[2.5]octan-6-yl)benzamide], the IC50 worked out at 67 nM.
Then `C[C@@H]1CN(c2cccc(NC(=O)c3ccc(NS(=O)(=O)CCF)cc3N3CCC4(CC3)CC4)n2)CCO1` [Example 7-35, (R)-4-((2-Fluoroethyl)sulfonamido)-N-(6-(2-methylmorpholino)pyridin-2-yl)-2-(6-azaspiro[2.5]octan-6-yl)benzamide], with 24 nM.
Next, `Cc1cc(NC(=O)c2ccc(NS(=O)(=O)[C@H](C)CO)cc2N2CCC3(CC2)CC3)nc(N2CCC(F)(F)CC2)c1` (single isomer, unassigned) [Example 9-8]: 38 nM; `CC(O)CCOc1cccc(NC(=O)c2ccc(NS(=O)(=O)CCO)cc2N2CCC3(CC2)CC3)n1` (centres unmarked) [Example 16-7, N-(6-(3-Hydroxybutoxy)pyridin-2-yl)-4-((2-hydroxyethyl)sulfonamido)-2-(6-azaspiro[2.5]octan-6-yl)benzamide]: 31 nM; `Cc1cc(NC(=O)c2ccc(NS(=O)(=O)C3(C)CC3)cc2N2CCC3(CC2)CC3)nc(C(C)(C)O)c1` [Example 4-17, N-(6-(2-Hydroxypropan-2-yl)-4-methylpyridin-2-yl)-4-((1-methylcyclopropane)-1-sulfonamido)-2-(6-azaspiro[2.5]octan-6-yl)benzamide]: 163 nM.
Next, `C[C@@H]1CN(c2cccc(NC(=O)c3ccc(S(=O)(=O)N4CC(C)(C)C4)cc3N3CCC4(CC3)CC4)n2)CCO1` [Example 1-11, (R)-4-((3,3-Dimethylazetidin-1-yl)sulfonyl)-N-(6-(2-methylmorpholino)pyridin-2-yl)-2-(6-azaspiro[2.5]octan-6-yl)benzamide]: 566 nM; `C[C@@H](CO)S(=O)(=O)Nc1ccc(C(=O)Nc2cccc(N3CC(F)(F)C3)n2)c(N2CCC3(CC2)CC3)c1` (single isomer, unassigned) [Example 9-4]: 68 nM.
Consider `C[C@@H]1CN(c2cccc(NC(=O)c3ccc(S(C)(=N)=O)cc3N3CCC4(CC3)CC4)n2)CCO1` (single isomer, unassigned) [Example 13-3], for which the half-maximal inhibitory concentration (IC50) was found to be 418 nM.
Then `C[C@@H]1CN(c2cccc(NC(=O)c3ccc(NS(=O)(=O)C4(C)CC4)cc3N3CCC4(CC3)CC4)n2)CCO1` [Example 4-14, (R)-4-((1-Methylcyclopropane)-1-sulfonamido)-N-(6-(2-methylmorpholino)pyridin-2-yl)-2-(6-azaspiro[2.5]octan-6-yl)benzamide], with 66 nM.
Next, `CC1(S(=O)(=O)Nc2ccc(C(=O)Nc3cccc(N4CCCC(F)(F)C4)n3)c(N3CCC4(CC3)CC4)c2)CC1` [Example 3-14, N-(6-(3,3-Difluoropiperidin-1-yl)pyridin-2-yl)-4-((1-methylcyclopropane)-1-sulfonamido)-2-(6-azaspiro[2.5]octan-6-yl)benzamide]: 38 nM.
